Among the test systems are Acinetobacter baumannii; Escherichia coli ML-35p; Bacillus subtilis.
What all share (assay): ≥ marks a high value that may be exact or a test limit, other limits are often not marked, values filed in µg/mL are converted to µM
For test [1], the system named is Staphylococcus aureus NCTC 8325.
In test [2] the test system is Escherichia coli ATCC 25922.
The subject of test [3] is Escherichia coli ATCC 25726.
Test [4] concerns Staphylococcus aureus ATCC 25923.
Test [5] relates to Candida albicans ATCC 90028.
For test [6], the system named is Micrococcus luteus ATCC 9341.
The test system of test [7] is Escherichia coli NCTC 10418.
The test system of test [8] is Staphylococcus epidermidis KCTC 1917.
The subject of test [9] is Pseudomonas aeruginosa KCTC 1637.
For test [10], the system named is Staphylococcus aureus KCTC 1621.
The subject of test [11] is Escherichia coli KCTC 1682.
In test [12] the test system is Bacillus subtilis KCTC 3068.
The test system of test [13] is Salmonella typhimurium KCTC 1926.
Test [14] relates to Pseudomonas aeruginosa ATCC 27853.
Test [15] has as its system Candida albicans ATCC 2002.
In test [16] the test system is Pseudomonas aeruginosa PAO1.
Test [17] concerns Staphylococcus aureus ATCC 2592.
Test [18] has as its system Staphylococcus aureus ATCC 43300.

SMILES strings stand for the structures. Values after ≈ are worked out from the molar mass of the structure shown.

As usually defined, the MIC is the lowest concentration found to suppress growth. The low end stands for greater potency, the high end for weaker potency. For `CC[C@H](C)[C@H](NC(=O)CN)C(=O)N[C@@H](CC(C)C)C(=O)N[C@@H](CO)C(=O)N[C@@H](CO)C(=O)N[C@H](C(=O)N[C@@H](CCCCN)C(=O)NCC(=O)N[C@H](C(=O)N[C@@H](C)C(=O)N[C@@H](CCCCN)C(=O)NCC(=O)N[C@H](C(=O)N[C@@H](C)C(=O)N[C@@H](CCCCN)C(=O)N[C@@H](CC(N)=O)C(=O)N[C@H](C(=O)N[C@@H](C)C(=O)N[C@@H](C)C(=O)N[C@@H](CCC(N)=O)C(=O)N[C@@H](CC(C)C)C(=O)N[C@@H](CC(C)C)C(=O)N[C@@H](CC(=O)O)C(=O)N[C@H](C(=O)N[C@@H](CC(C)C)C(=O)N[C@@H](CCCCN)C(=O)N[C@H]1CSSC[C@@H](C(=O)O)NC(=O)CNC(=O)[C@H]([C@@H](C)O)NC(=O)[C@H]([C@@H](C)CC)NC(=O)[C@H](CCCCN)NC1=O)[C@@H](C)O)C(C)C)C(C)C)C(C)C)[C@@H](C)CC` [GILSSIKGVAKGVAKNVAAQLLDTLKCKITGC], the MIC in test [1] was 4 µM (≈ 12.8 µg/mL); in test [2], 4 µM (≈ 12.8 µg/mL); in [3], 6 µM (≈ 19.2 µg/mL); in test [4], 6 µM (≈ 19.2 µg/mL); in test [5], at least 62 µM.

`CC[C@H](C)[C@H](NC(=O)CN)C(=O)N[C@@H](Cc1c[nH]c2ccccc12)C(=O)N[C@@H](CC(=O)O)C(=O)N[C@H](C(=O)N[C@H](C(=O)N[C@@H](CCCCN)C(=O)N[C@@H](CO)C(=O)N[C@@H](CCSC)C(=O)NCC(=O)N[C@@H](CCCCN)C(=O)N[C@H](C(=O)N[C@@H](Cc1ccccc1)C(=O)N[C@@H](C)C(=O)NCC(=O)N[C@@H](C)C(=O)N[C@H](C(=O)N[C@@H](CC(C)C)C(=O)N[C@@H](CCC(N)=O)C(=O)N[C@@H](CC(N)=O)C(=O)N[C@@H](CC(C)C)C(N)=O)[C@@H](C)CC)C(C)C)[C@@H](C)CC)[C@@H](C)O` [GIWDTIKSMGKVFAGAILQNL]: the MIC was at least 50 µM in test [3], 12.5 µM (≈ 28.3 µg/mL) in test [4], 25 µM (≈ 56.5 µg/mL) in test [5] and 12.5 µM (≈ 28.3 µg/mL) against Acinetobacter baumannii.

`CC[C@H](C)[C@H](N)C(=O)N[C@@H](CC(C)C)C(=O)N1CCC[C@H]1C(=O)N[C@@H](Cc1c[nH]c2ccccc12)C(=O)N[C@@H](CCCCN)C(=O)N[C@@H](Cc1c[nH]c2ccccc12)C(=O)N1CCC[C@H]1C(=O)N[C@@H](Cc1c[nH]c2ccccc12)C(=O)N[C@@H](C)C(=O)N1CCC[C@H]1C(=O)N[C@@H](Cc1c[nH]c2ccccc12)C(=O)N[C@@H](CCCN=C(N)N)C(=O)N[C@@H](CCCN=C(N)N)C(N)=O` [ILPWKWPWAPWRR]: the MIC in test [6] is 0.8 µM (≈ 1.43 µg/mL).

In turn, `CC[C@H](C)[C@H](NC(=O)[C@H](CCCCN)NC(=O)[C@H](C)NC(=O)[C@H](C)N)C(=O)N[C@H](C(=O)N[C@@H](CC(C)C)C(=O)N[C@@H](CC(N)=O)C(=O)N1CCC[C@H]1C(=O)N[C@@H](CCCCN)C(=O)N[C@@H](Cc1ccccc1)C(=O)N[C@@H](CCCN=C(N)N)C(=O)N[C@H]1CSSC[C@@H](C(=O)O)NC(=O)[C@H](Cc2ccccc2)NC(=O)[C@H](C)NC(=O)[C@H](C)NC(=O)[C@H](Cc2ccccc2)NC1=O)[C@@H](C)CC` [AAKIILNPKFRCFAAFC] came in with an MIC in test [7] of at least 160 µM.

`CC[C@H](C)[C@H](N)C(=O)N[C@@H](CC(C)C)C(=O)NCC(=O)N[C@@H](Cc1c[nH]c2ccccc12)C(=O)N[C@@H](CCCCN)C(=O)N[C@@H](Cc1c[nH]c2ccccc12)C(=O)NCC(=O)N[C@@H](Cc1c[nH]c2ccccc12)C(=O)N[C@@H](Cc1c[nH]c2ccccc12)C(=O)NCC(=O)N[C@@H](Cc1c[nH]c2ccccc12)C(=O)N[C@@H](CCCN=C(N)N)C(=O)N[C@@H](CCCN=C(N)N)C(N)=O` [ILGWKWGWWGWRR] registered an MIC in test [6] of 0.4 µM (≈ 0.714 µg/mL).

For `CC[C@H](C)[C@H](NC(=O)CN)C(=O)N[C@@H](Cc1c[nH]c2ccccc12)C(=O)N[C@@H](CC(=O)O)C(=O)N[C@H](C(=O)N[C@H](C(=O)N[C@@H](CCCCN)C(=O)N[C@@H](CO)C(=O)N[C@@H](CCSC)C(=O)NCC(=O)N[C@@H](CCCCN)C(=O)N[C@H](C(=O)N[C@@H](Cc1ccccc1)C(=O)N[C@@H](C)C(=O)NCC(=O)N[C@@H](CCCCN)C(=O)N[C@H](C(=O)N[C@@H](CCCCN)C(=O)N[C@@H](CCC(N)=O)C(=O)N[C@@H](CC(N)=O)C(=O)N[C@@H](CC(C)C)C(N)=O)[C@@H](C)CC)C(C)C)[C@@H](C)CC)[C@@H](C)O` [GIWDTIKSMGKVFAGKIKQNL], the MIC in [3] was at least 50 µM; in [4], over 100 µM; in test [5], 25 µM (≈ 58.3 µg/mL); in the test on Acinetobacter baumannii, 12.5 µM (≈ 29.2 µg/mL).

Turning to `CC[C@H](C)[C@H](NC(=O)[C@@H](N)CCCCN)C(=O)N[C@@H](CCCCN)C(=O)N[C@@H](CC(C)C)C(=O)N[C@@H](Cc1ccccc1)C(=O)N[C@@H](CCCCN)C(=O)N[C@@H](CCCCN)C(=O)N[C@@H](Cc1c[nH]c2ccccc12)C(=O)N1CCC[C@H]1C(=O)N[C@@H](CCCCN)C(=O)N[C@@H](Cc1ccccc1)C(=O)N[C@@H](CC(C)C)C(=O)N[C@@H](Cc1cnc[nH]1)C(=O)N[C@@H](CC(C)C)C(=O)N[C@@H](C)C(=O)N[C@@H](CCCCN)C(=O)N[C@@H](CCCCN)C(=O)N[C@@H](Cc1ccccc1)C(N)=O` [KIKLFKKWPKFLHLAKKF], the MIC is 1 µM (≈ 2.3 µg/mL) in test [8]; 2 µM (≈ 4.6 µg/mL) in [9]; 2 µM (≈ 4.6 µg/mL) in test [10]; 2 µM (≈ 4.6 µg/mL) in [11]; 1 µM (≈ 2.3 µg/mL) in [12]; 2 µM (≈ 4.6 µg/mL) in [13].

In the case of `CC[C@H](C)[C@H](N)C(=O)NCC(=O)N[C@@H](CCCCN)C(=O)N[C@@H](CCCCN)C(=O)N[C@@H](Cc1ccccc1)C(=O)N[C@@H](CCCCN)C(=O)N[C@@H](CCCN=C(N)N)C(=O)N[C@H](C(=O)N[C@H](C(=O)N[C@@H](CCC(N)=O)C(=O)N[C@@H](CCCN=C(N)N)C(=O)N[C@H](C(=O)N[C@@H](CCCCN)C(=O)N[C@@H](CCCCN)C(=O)N[C@@H](Cc1ccccc1)C(=O)N[C@@H](CC(C)C)C(=O)N[C@@H](CCCN=C(N)N)C(=O)N[C@@H](CCCCN)C(=O)N[C@@H](CC(C)C)C(=O)O)[C@@H](C)CC)C(C)C)[C@@H](C)CC` [IGKKFKRIVQRIKKFLRKL], the MIC in test [8] turned out to be 2 µM (≈ 4.8 µg/mL); in test [9] it was 8 µM (≈ 19.2 µg/mL); in test [10], 4 µM (≈ 9.6 µg/mL); in test [11], 8 µM (≈ 19.2 µg/mL); in test [12], 2 µM (≈ 4.8 µg/mL); in [13] it was 4 µM (≈ 9.6 µg/mL).

In test [6], `CC[C@H](C)[C@H](NC(=O)[C@H](CC(C)C)NC(=O)[C@@H]1CCCN1C(=O)[C@H](Cc1ccccc1)NC(=O)[C@H](CCCCN)NC(=O)[C@H](Cc1ccccc1)NC(=O)[C@@H]1CCCN1C(=O)[C@H](Cc1ccccc1)NC(=O)[C@H](Cc1ccccc1)NC(=O)[C@@H]1CCCN1C(=O)[C@H](Cc1ccccc1)NC(=O)[C@H](CCCN=C(N)N)NC(=O)[C@@H](N)CCCN=C(N)N)C(N)=O` [RRFPFFPFKFPLI] came in with an MIC of 0.4 µM (≈ 0.684 µg/mL).

For the molecule `CC[C@H](C)[C@H](N)C(=O)N[C@@H](CC(C)C)C(=O)N1CCC[C@H]1C(=O)N[C@@H](Cc1c[nH]c2ccccc12)C(=O)N[C@@H](CCCCN)C(=O)N[C@@H](Cc1c[nH]c2ccccc12)C(=O)N1CCC[C@H]1C(=O)N[C@@H](Cc1c[nH]c2ccccc12)C(=O)N[C@@H](Cc1c[nH]c2ccccc12)C(N)=O` [ILPWKWPWW], the MIC in [6] is 1.6 µM (≈ 2.1 µg/mL). This MIC lies about 4-fold higher than the previous one.

As to `CC[C@H](C)[C@H](NC(=O)CNC(=O)[C@@H](NC(=O)[C@H](C)NC(=O)[C@H](CCSC)NC(=O)[C@H](CCCCN)NC(=O)[C@@H](NC(=O)[C@@H](NC(=O)[C@@H]1CCCN1C(=O)CNC(=O)[C@H](CC(C)C)NC(=O)[C@@H](N)Cc1ccccc1)[C@@H](C)CC)[C@@H](C)CC)[C@@H](C)O)C(=O)N[C@@H](CC(C)C)C(=O)N1CCC[C@H]1C(=O)N[C@H](C(=O)N[C@@H](C)C(=O)N[C@H](C(=O)N[C@H]1CSSC[C@@H](C(=O)O)NC(=O)[C@H](CCCCN)NC(=O)[C@H](CCCCN)NC(=O)[C@H](CC(C)C)NC(=O)CNC(=O)[C@H](CCCCN)NC1=O)[C@@H](C)CC)[C@@H](C)O` [FLGPIIKMATGILPTAICKGLKKC], the MIC is 19.9 µM (≈ 50 µg/mL) against Escherichia coli ML-35p; 1.99 µM (≈ 5 µg/mL) in [14]; 1.99 µM (≈ 5 µg/mL) in test [15]; 3.97 µM (≈ 9.99 µg/mL) in test [16]; 0.993 µM (≈ 2.5 µg/mL) in test [17]; 7.95 µM (≈ 20 µg/mL) in the test on Bacillus subtilis. In test [18], this molecule returned an MIC of 0.993 µM (≈ 2.5 µg/mL).

The values above are taken from DBAASP.
